Patent US20230144436A1, “MUSCLE TARGETING COMPLEXES AND USES THEREOF FOR TREATING MYOTONIC DYSTROPHY” (Dyne Therapeutics, Inc., priority 2020, published 2023)

Test system: DMPK
Assay: DMPK knockdown by transfected antisense oligonucleotides in DM1 C15 myotubes at 0.5 nM and 50 nM
Format: cell-based
Settings: 72 hours, qPCR; for Percent DMPK Reduction: relative to vehicle control; for Normalized DMPK Remaining: relative to vehicle control = 1.00
Description: Two hundred and thirty-six oligonucleotides for targeting DMPK were generated using in silico analysis. Each individual oligonucleotide was evaluated for their ability to target DMPK in cellulo at two doses—0.5 nM (low dose) and 50 nM (high dose).
Briefly, DM1 C15 immortalized myoblasts were cultured in T-75 flasks until near confluency (˜80% confluent). Myoblasts were then disrupted with trypsin and seeded into 96-well microplates at a density of 50,000 cells/well. Cells were allowed to recover overnight before the growth media was washed out and replaced with a no-serum media to induce differentiation into myotubes. Differentiation proceeded for seven days prior to treatment with DMPK-targeting oligonucleotides.
On day seven following induction of differentiation, DM1 C15 myotubes were transfected with an individual oligonucleotide using 0.3 μL of Lipofectamine MessengerMax per well. All oligonucleotides were tested at both 0.5 nM and 50 nM final concentrations in biological triplicates. After treatment with oligonucleotides, cells were incubated for 72 hours prior to being harvested for total RNA. cDNA was synthesized from the total RNA extracts and qPCR was performed to determine expression levels of DMPK in technical quadruplicate. All qPCR data were analyzed using a traditional […] method and were normalized to a plate-based negative control that comprised cells treated with vehicle control (0.3 μL/well Lipofectamine MessengerMax without any oligonucleotide). Results from these experiments are shown in Table 10. ‘Normalized DMPK Remaining’ for each antisense oligonucleotide in Table 10 refers to the expression level of DMPK in cell treated with said antisense oligonucleotide relative to the negative control that comprised cells treated with vehicle control (wherein the expression level of the negative control has been normalized to equal 1.00)

Substance	Percent DMPK Reduction (0.5 nM oligonucleotide) [%]	Normalized DMPK Remaining (0.5 nM oligonucleotide)	Percent DMPK Reduction (50 nM oligonucleotide) [%]	Normalized DMPK Remaining (50 nM oligonucleotide)
290 (GGCCAUGACAAUCUCCGCCA; chemistry not given here) [compound 290]	42.38	0.58	75.00	0.25
291 (AUACUCCAUGACCAGGUACA; chemistry not given here) [compound 291]	23.07	0.77	56.84	0.43
292 (GCCUCUGCCUCGCGUAGUUG; chemistry not given here) [compound 292]	35.38	0.65	81.18	0.19
295 (CCUUGUAGUGGACGAUCUUG; chemistry not given here) [compound 295]	17.20	0.83	65.91	0.34
296 (AUCUCCGCCAGGUAGAAGCG; chemistry not given here) [compound 296]	42.37	0.58	65.50	0.35
297 (CUCAGGCUCUGCCGGGUGAG; chemistry not given here) [compound 297]	30.13	0.70	63.07	0.37
298 (UGCUUCAUCUUCACUACCGC; chemistry not given here) [compound 298]	28.82	0.71	60.24	0.40
300 (GGCCUCAGCCUCUGCCGCAG; chemistry not given here) [compound 300]	20.12	0.80	71.28	0.29
302 (CCACGUAAUACUCCAUGACC; chemistry not given here) [compound 302]	20.84	0.79	50.06	0.50
303 (CCGUUCCAUCUGCCCGCAGC; chemistry not given here) [compound 303]	31.74	0.68	77.46	0.23
304 (UUCCCGAGUAAGCAGGCAGA; chemistry not given here) [compound 304]	31.49	0.69	49.81	0.50
305 (UGAUCUUCAUGGCAUACACC; chemistry not given here) [compound 305]	27.70	0.72	89.68	0.10
306 (AGGGACAGCCGCUGGAACTG; chemistry not given here) [compound 306]	28.72	0.71	45.34	0.55
307 (GGGUUUGAUGUCCCUGUGCA; chemistry not given here) [compound 307]	40.12	0.60	62.61	0.37
308 (UGACAAUCUCCGCCAGGUAG; chemistry not given here) [compound 308]	38.86	0.61	66.56	0.33
309 (CACAGCGGUCCAGCAGGAUG; chemistry not given here) [compound 309]	6.62	0.93	59.58	0.40
311 (CUCAGCCUCUGCCGCAGGGA; chemistry not given here) [compound 311]	17.86	0.82	79.58	0.20
312 (GUCUCAGUGCAUCCAAAACG; chemistry not given here) [compound 312]	18.85	0.81	46.13	0.54

Substance	Percent DMPK Reduction (0.5 nM oligonucleotide) [%]	Normalized DMPK Remaining (0.5 nM oligonucleotide)	Percent DMPK Reduction (50 nM oligonucleotide) [%]	Normalized DMPK Remaining (50 nM oligonucleotide)
314 (UCAGCAGUGUCAGCAGGUCC; chemistry not given here) [compound 314]	33.46	0.67	61.11	0.39
315 (GCUCCUGGGCGGCGCCAGAC; chemistry not given here) [compound 315]	8.52	0.91	78.79	0.21
317 (AUCCGCUCCUGCAACUGCCG; chemistry not given here) [compound 317]	12.80	0.87	40.06	0.60
318 (AGGAGCAGGGAAAGCGCCUC; chemistry not given here) [compound 318]	33.24	0.67	62.37	0.38
319 (ACACCUGGCCCGUCUGCUUC; chemistry not given here) [compound 319]	33.00	0.67	55.40	0.45
321 (GCUCCCUCUGCCUGCAGCAA; chemistry not given here) [compound 321]	26.41	0.74	70.15	0.30
322 (GCUCAGGCUCUGCCGGGUGA; chemistry not given here) [compound 322]	25.69	0.74	60.71	0.39
323 (UUGAUGUCCCUGUGCACGUA; chemistry not given here) [compound 323]	25.67	0.74	55.13	0.45
324 (GCCUCAGCCUCUGCCGCAGG; chemistry not given here) [compound 324]	16.37	0.84	46.42	0.54
325 (GGUAGUUCUCAUCCUGGAAG; chemistry not given here) [compound 325]	25.48	0.75	56.15	0.44
326 (CAGCGCCCACCAGUCACACU; chemistry not given here) [compound 326]	37.28	0.63	64.93	0.35
327 (CCCAAACUUGCUCAGCAGUG; chemistry not given here) [compound 327]	37.02	0.63	61.78	0.38
328 (CUUGCCAUAGGUCUCCGCCG; chemistry not given here) [compound 328]	27.04	0.73	71.05	0.29
329 (UACACCUGGCCCGUCUGCUU; chemistry not given here) [compound 329]	31.10	0.69	57.43	0.43
330 (CCAGCGCCCACCAGUCACAC; chemistry not given here) [compound 330]	36.17	0.64	70.96	0.29
331 (GGCCUCAGCCUGGCCGAAAG; chemistry not given here) [compound 331]	14.49	0.86	64.80	0.35
332 (AAUCUCCGCCAGGUAGAAGC; chemistry not given here) [compound 332]	35.85	0.64	65.27	0.35
333 (AUGGCAUACACCUGGCCCGU; chemistry not given here) [compound 333]	14.31	0.86	49.63	0.50
